Where two headings read alike, the source gives them in different places.

Data set [1] has as its system MIAPaCa-2 human pancreatic tumor cells. Kind of data set: Pancreatic cancer (MIAPaCa-2) mouse model, survival. The format is in vivo, NOD scid gamma (NSG) mice. On the procedure: For example, FIG. 7 is a schematic describing a study investigating three different dosing regimens for coenzyme Q10 in an animal model of pancreatic cancer. The effect of coenzyme Q10 alone or in combination with gemcitabine on total survival in a preclinical mouse model of pancreatic cancer was evaluated.
Equal numbers of MIAPaCa-2 human pancreatic tumor cells were suspended in […]® and injected into NOD scid gamma (NSG) mice. The NSG mouse model is devoid of innate and adaptive immune systems and provides a biological environment suitable for the growth of human tumors in vivo. The MIAPaCa-2 is a well established human derived pancreatic carcinoma cell line that can be used to establish pancreatic tumors in immunosuppressed animals. MIAPaca-2 tumors were allowed to develop for, on average, at least 3 weeks in mice prior to initiation of treatment. Animals with palpable tumors were randomized into treatment groups.
The three treatment regimens utilized for the study included once/daily, twice/daily or thrice/daily dosing of coenzyme Q10 at either 50 mg/kg body weight (Regimen 1 & Regimen 2) or 50 mg/kg or 75 mg/kg body weight (Regimen 3) alone or in combination with a fixed dose of gemcitabine (150) mg/kg body weight). For example, mice treated twice/daily received two 50 mg/kg doses of coenzyme Q10, for a total of 100 mg/kg/day, and mice treated thrice daily received three 50 mg/kg doses of coenzyme Q10 for a total of 150 mg/kg/day. Each group of animals received chemotherapeutic treatment for a minimum of three cycles and was maintained to determine outcomes.
Next, a continuous infusion protocol was implemented to determine the effect of constant coenzyme Q10 administration on survival in an animal model of pancreatic cancer. An infusion pump was surgically installed in the animals to facilitate continuous infusion of coenzyme Q10 at a dose of 25 mg/kg, 50 mg/kg or 100 mg/kg body weight per day. Treatment was continued throughout the entire duration of the study.

For data set [2], the system named is lung chloromas (MIA C51 clone). Kind of data set: Lung chloroma rat model, survival. The format is in vivo, rats. As to conditions: continuous infusion vs injection 3 times a day, 50 mg/kg per day. The source says:
The effect of dosing schedule of coenzyme Q10 was also investigated in rats bearing liver or lung chloromas. Rats were transplanted with liver or lung clones of malignant chloromas derived from a stable myelogenous leukemia (chloroleukemia) cell line, MIA C51 (see. e.g., Jimenez and Yunis (1987) Science 238: 1278-1280). The clones have been selected to home to and form tumors in the liver or lungs, respectively. Rats were randomized to receive either no treatment, injection 3 times a day with 40 mg/mL (4%) coenzyme Q10, or continuous infusion of 40 mg/mL (4%) coenzyme Q10 via an implanted pump, to deliver for each regimen a total dose of 50 mg/kg body weight per day. […] For example, at Day 189 in the liver chloroma model, 45 of 50 rats were alive in the continuous infusion treatment group compared with 26 of 50 rats alive in the injection treatment group. All control animals were dead at Day 30.

The procedure of data set [3]: In the Phase 1a portion of the trial, patients who meet eligibility parameters receive 2 consecutive 48-hour infusions of coenzyme Q10 twice weekly on Monday and Wednesday (i.e., Days 1, 3, 8, 10, 15, 17, 22, and 24), essentially receiving coenzyme Q10 treatment for 96 hours per week of each 28-day cycle. At each dose level of Arm 1 and Arm 2, patients are treated for either 8 hours at minimum of outpatient monitoring or inpatient monitoring for the first 24-hrs of the first infusion of Cycle 1. All other treatments are administered in an outpatient setting. Dose limiting toxicities are assessed during Cycle 1.
The study is a standard 3+3 dose escalation design with the dose escalated in successive cohorts of 3 to 6 patients each. Toxicity at each dose level is graded according to National Cancer Institute Common Terminology Criteria for Adverse Events (CTCAE v4.02). Safety oversight is provided by the Cohort Review Committee (CRC). The CRC reviews and confirms all DLTs and monitor safety throughout the study (including Arm 2).
The 2 doses are administered over 4 consecutive days, i.e., the first dose on Monday-Wednesday and the second dose on Wednesday-Friday of each week. The study drug is administered undiluted via a central venous access device and the infusion rate is controlled by a programmable ambulatory infusion pump such as the CADD Prizm VIP (model 6101) ambulatory pump.
At each dose level of Arm 1 and Arm 2, patients are treated for either 8 hours at minimum of outpatient monitoring or inpatient monitoring for the first 24-hrs of the first infusion of Cycle 1. Patients are monitored for dose-limiting toxicity (DLT) or an AE that requires prolonged hospitalization. If no reaction to coenzyme Q10 develops, the patient will be discharged.
For the second dose of each week (i.e., on Days 3, 10, 17, and 24 of the cycle) the total dose volume are given over 48 hours with no loading dose as indicated in Table 6 below. Coenzyme Q10 Nanosuspension for Injection Dose Cohorts (Arm 1; Monotherapy).

The mark [4] stands for this setting: combination with gemcitabine, Dose level 1 (50 mg/kg).

Consider coenzyme Q10, for which the survival result in data set [1] (coenzyme Q10 alone, once/twice/thrice daily 50 mg/kg (or 75 mg/kg), vs untreated or chemotherapy alone) was “increase in survival”. Also, the survival rates result in data set [1] (coenzyme Q10 in combination with gemcitabine 150 mg/kg) was “higher survival rates than coenzyme Q10 alone or gemcitabine alone”; in data set [1] (continuous infusion), “higher survival rates than those treated with continuous infusion of 50 mg/kg or 25 mg/kg”. Moreover, in data set [1] (continuous infusion 25 mg/kg body weight per day vs 50 mg/kg three times per day), the survival rate result is reported as “higher survival rate”. Further, in data set [1] (increasing 50 mg/kg doses from once/daily to three times per day), the animal survival entry was “significant improvement in animal survival”. Further, the “effectiveness of continuous infusion regimen” value in data set [2] is on record as “much more effective than the injection regimen”. The safety issues result is reported as “No 5FU-related issued” in data set [3] (combination with 5-Fluorouracil, Dose level 1 (50 mg/kg)) and “No docetaxel-related issued” in data set [3] (combination with docetaxel, Dose level 1 (50 mg/kg)). Also, the dose level evaluation result in data set [3] (combination with 5-Fluorouracil, Dose level 2 (66 mg/kg)) is reported as “Dose level cleared”. In addition, the “issues or DLTs” value in data set [3] (combination with docetaxel, Dose level 2 (66 mg/kg)) is “No issues or DLTs”; in data set [3] (combination with docetaxel, Dose level 3 (kg mg/kg), evaluation ongoing) it was “No issues or DLTs”. Further, the “dose-limiting toxicity (DLT)” value in data set [3] (setting [4]) was “no DLT”; in data set [3] (monotherapy Dose Level 1 (66 mg/kg), 9 subjects, grade 3 GGT), 1 DLT; in data set [3] (monotherapy Dose Level 2 (88 mg/kg), 4 subjects) it was 0 DLT; in data set [3] (monotherapy Dose Level 3 (110 mg/kg), 4 subjects, evaluation ongoing), 0 DLT. For the same substance, in data set [3] (setting [4]), the “thrombocytopenia (gemcitabine-related adverse event)” value is recorded as “Mild to moderate thrombocytopenia”. Also, in data set [3] (continuous infusion protocol), the bleeding events entry was “No bleeding events were reported”. Also, the coagulation abnormalities entry in data set [3] (continuous infusion protocol with aggressive pre-loading or treatment with Vitamin K) was “minimal coagulation abnormalities”. Also, in data set [3] (current dose levels, continuous infusion), the overall safety result is reported as “safe at the current levels”. Further, the safety and tolerability result in data set [3] (monotherapy and combination therapy, initial results) is “safe and well tolerated”. Also, the triglycerides entry in data set [3] (no clinical significance) is given as “Transient elevation of triglycerides”. The “adverse events with increased infusion duration” value in data set [3] (vs four hour infusion at higher rate, expected at the end of the ongoing study) is “decrease adverse events”.

Source of the values: patent US12653776B2, “Methods of treatment of cancer by continuous infusion of coenzyme Q10” (priority 2013, dated 2026).
